Experimental data as given in patent US20260272878A1, “ADAR1 INHIBITORS AND USES THEREOF” (THE WISTAR INSTITUTE OF ANATOMY AND BIOLOGY, priority 2023, published 2026).
Entries after “also recorded” stand apart in the source; their conditions may differ.

Experiments:
HuR = HuR (Homo sapiens, UniProt Q15717); experiment: SPR binding to negative control protein HuR
Excerpt: (§1) FIGS. 5A-5D show Biacore SPR analysis for binding of ADAR1i to ADAR1p110. (FIG. 5A) SPR analysis for binding kinetics of 8 compounds to ADAR1p110-WT. ADAR1 inhibition positive (ADAR1i-13, ADAR1i-120, ADAR1i-124) and negative compounds. (FIG. 5B, FIG. 5C) […] of SPR analysis for binding of ADAR1i-13 and ADAR1i-124 to ADAR1p110-WT and ADAR1p110-E912A as well as negative control proteins, GAPDH and HuR, are shown. […] ADAR1-E912, equivalent of ADAR2 E396, is located in the catalytic center.

GAPDH = GAPDH (Homo sapiens, UniProt P04406); experiment: SPR binding to negative control protein GAPDH
Excerpt: as §1

HeLa cells = experiment: Dot blot analysis for RNA:DNA hybrids (R-loops); type: cell-based, human; settings: 10 μM for ADAR1i-124
YUMM1.7 cells = experiment: Immunostaining (MAb J2) of unedited dsRNA fibers; type: cell-based, mouse; settings: for Unedited dsRNA fiber structures in cells: immunostaining with MAb J2, YUMM1.7 cells
Excerpt: FIGS. 7A-7C show analysis of ADAR1i-13 and analogs. […] IC50 values determined by dose-dependent in vitro editing assay are shown for ADAR1 inhibition positive compounds. […] Dumbbell-shaped dsRNA has been reported to form Z-RNA conformation and act as a strong IFN signaling activation triggers. ADAR1p150 mediated A-to-I editing suppresses Z-RNA structure transition and activation of IFN signaling.
It has been reported that the suppression ADAR1 editing activity results in binding of MDA5 to unedited dsRNAs, oligomerization of MDA5-dsRNA complexes, and formation of fiber-like structures (21, 44). These dsRNA fiber structures were detected in cells treated with ADAR1 inhibition active compounds, ADAR1i-13, ADAR1i-120, and ADAR1i-124, but not detected in cells treated with ADAR1 inhibition negative compounds (FIG. 7A).

ADAR1p110-E912A = ADAR1p110-E912A (Homo sapiens, UniProt P55265, E912A); experiment: Biacore SPR binding to ADAR1p110-E912A mutant
Excerpt: as §1
No complete 3-D structure of ADAR1 is currently available. […] The glutamate E912 and E396 in ADAR1 and ADAR2, respectively, plays an important proton transfer function during hydrolytic deamination reaction (42, 43).

ADAR1p150 = target: T1, ADAR1p150 (Homo sapiens, UniProt P55265); experiment: In vitro editing assay, ADAR1p150; type: biochemical; settings: for IC50: ADAR1p150 (not shown)
T1 sequence (P55265 1-1226): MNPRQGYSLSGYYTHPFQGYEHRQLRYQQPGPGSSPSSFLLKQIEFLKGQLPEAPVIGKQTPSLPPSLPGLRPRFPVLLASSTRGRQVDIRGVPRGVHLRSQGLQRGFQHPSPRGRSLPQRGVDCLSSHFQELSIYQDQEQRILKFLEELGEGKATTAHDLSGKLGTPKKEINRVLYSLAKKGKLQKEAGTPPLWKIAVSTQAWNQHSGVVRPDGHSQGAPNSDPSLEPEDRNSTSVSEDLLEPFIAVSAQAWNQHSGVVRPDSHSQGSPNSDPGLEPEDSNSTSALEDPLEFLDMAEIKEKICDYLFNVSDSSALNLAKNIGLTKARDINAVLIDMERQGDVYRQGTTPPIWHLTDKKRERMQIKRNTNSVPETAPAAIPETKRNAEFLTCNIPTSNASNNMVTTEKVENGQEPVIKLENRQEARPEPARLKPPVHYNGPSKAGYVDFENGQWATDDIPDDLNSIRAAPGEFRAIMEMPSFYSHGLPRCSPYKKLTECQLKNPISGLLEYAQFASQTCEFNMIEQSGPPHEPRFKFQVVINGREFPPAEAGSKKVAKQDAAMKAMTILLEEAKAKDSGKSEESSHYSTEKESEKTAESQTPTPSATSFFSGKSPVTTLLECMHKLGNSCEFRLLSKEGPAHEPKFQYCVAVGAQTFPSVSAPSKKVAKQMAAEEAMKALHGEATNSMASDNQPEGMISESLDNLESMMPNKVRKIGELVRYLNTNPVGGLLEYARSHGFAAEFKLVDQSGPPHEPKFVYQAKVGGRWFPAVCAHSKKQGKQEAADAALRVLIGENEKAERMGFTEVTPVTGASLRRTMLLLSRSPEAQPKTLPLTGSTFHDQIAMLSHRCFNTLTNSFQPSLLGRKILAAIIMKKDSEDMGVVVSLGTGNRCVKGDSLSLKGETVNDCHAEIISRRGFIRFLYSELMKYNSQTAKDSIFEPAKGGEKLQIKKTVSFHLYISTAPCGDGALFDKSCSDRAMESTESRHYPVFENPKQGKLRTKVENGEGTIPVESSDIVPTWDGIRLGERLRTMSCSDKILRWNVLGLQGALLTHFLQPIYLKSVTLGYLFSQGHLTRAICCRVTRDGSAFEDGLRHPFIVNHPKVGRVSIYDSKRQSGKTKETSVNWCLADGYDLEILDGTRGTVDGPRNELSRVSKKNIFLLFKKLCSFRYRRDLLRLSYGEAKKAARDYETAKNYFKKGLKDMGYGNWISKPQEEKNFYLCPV
Protocol: The in vitro editing reaction mixture, containing 5 nM of telomere RNA:RNA duplex substrates and 75 nM of HAT-ADAR1p110-WT, FLAG-ADAR1p110-WT, or HA-ADAR1p110-EAA protein, was incubated at 37° C. for 2 h in in vitro editing buffer I (20 mM HEPES-KOH PH 7.5, 100 mM NaCl, 0.01% NP-40, 5% glycerol, 1 mM DTT). For editing of RNA:DNA hybrid substrates, in vitro editing buffer II (20 mM HEPES-KOH PH 7.5, 20 mM NaCl, 0.01% NP-40, 5% glycerol, 1 mM DTT) was used. Edited RNA or DNA strands were purified using Dynabeads MyOne Streptavidin C1 (Thermo Fisher Scientific). To remove opposite RNA or DNA strands, rNase H (NEB) or TURBO dNase (Thermo Fisher Scientific) was used, respectively. For sequencing of edited substrates, reverse transcription-PCR was carried out for RNA strands, while PCR was carried out for DNA strands. RT reactions were carried out using SuperScript III Reverse Transcriptase (Thermo Fisher Scientific), and PCR reactions were performed using Platinum Taq DNA polymerase (Thermo Fisher Scientific). PCR products were sequenced using a specific sequencing primer, and the ratio of A and G peaks in the chromatograms were analyzed by CodonCode Aligner (CodonCode Corporation).
Seven additional analogs of ADAR1i-13 (FIG. 5A) were synthesized to determine structural characteristics required for ADAR1 editing inhibitory activity. […] In vitro editing IC50 values of ADAR1i-13, ADAR1i-120, and ADAR1i-124 (FIG. 5A) were similar, in the ~10-20 μM range, for both ADAR1p110 (FIG. 5A) and ADAR1p150 (not shown).

Chain of ADAR1p110-E912A (P55265 296-1226 E912A): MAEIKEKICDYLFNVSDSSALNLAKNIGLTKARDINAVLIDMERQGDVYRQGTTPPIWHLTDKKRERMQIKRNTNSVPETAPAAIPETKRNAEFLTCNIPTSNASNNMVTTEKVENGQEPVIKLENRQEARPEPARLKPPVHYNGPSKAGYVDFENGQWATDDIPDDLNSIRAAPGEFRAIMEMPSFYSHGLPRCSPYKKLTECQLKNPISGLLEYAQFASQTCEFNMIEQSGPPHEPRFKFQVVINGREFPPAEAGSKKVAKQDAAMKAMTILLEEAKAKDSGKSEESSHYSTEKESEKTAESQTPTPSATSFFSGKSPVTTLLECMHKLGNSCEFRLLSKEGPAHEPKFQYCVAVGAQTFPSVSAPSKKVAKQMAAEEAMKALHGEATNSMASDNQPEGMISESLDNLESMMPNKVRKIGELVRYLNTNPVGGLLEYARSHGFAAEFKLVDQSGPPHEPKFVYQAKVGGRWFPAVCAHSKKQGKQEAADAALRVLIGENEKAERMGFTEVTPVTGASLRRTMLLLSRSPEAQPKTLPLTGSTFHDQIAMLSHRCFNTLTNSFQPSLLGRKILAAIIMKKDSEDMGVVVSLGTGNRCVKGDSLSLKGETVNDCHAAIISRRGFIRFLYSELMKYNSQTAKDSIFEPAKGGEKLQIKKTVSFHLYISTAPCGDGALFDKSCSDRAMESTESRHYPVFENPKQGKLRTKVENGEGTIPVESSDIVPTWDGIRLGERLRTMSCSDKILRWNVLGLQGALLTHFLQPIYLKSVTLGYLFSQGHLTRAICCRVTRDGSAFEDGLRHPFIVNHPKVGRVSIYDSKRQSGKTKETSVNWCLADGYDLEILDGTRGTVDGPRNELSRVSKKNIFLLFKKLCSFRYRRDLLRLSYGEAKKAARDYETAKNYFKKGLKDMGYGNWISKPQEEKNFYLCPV
Chain of HuR (Q15717 whole entry, species assumed): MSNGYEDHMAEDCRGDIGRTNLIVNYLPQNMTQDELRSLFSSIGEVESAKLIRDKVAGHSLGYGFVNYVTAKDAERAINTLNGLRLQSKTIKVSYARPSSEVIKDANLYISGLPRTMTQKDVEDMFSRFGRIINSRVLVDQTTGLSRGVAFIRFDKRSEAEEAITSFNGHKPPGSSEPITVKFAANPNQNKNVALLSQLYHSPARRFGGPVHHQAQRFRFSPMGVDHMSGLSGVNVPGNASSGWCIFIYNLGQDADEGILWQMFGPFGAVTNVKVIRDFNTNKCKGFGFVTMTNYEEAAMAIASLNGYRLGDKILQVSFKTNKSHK
Chain of GAPDH (P04406 whole entry, species assumed): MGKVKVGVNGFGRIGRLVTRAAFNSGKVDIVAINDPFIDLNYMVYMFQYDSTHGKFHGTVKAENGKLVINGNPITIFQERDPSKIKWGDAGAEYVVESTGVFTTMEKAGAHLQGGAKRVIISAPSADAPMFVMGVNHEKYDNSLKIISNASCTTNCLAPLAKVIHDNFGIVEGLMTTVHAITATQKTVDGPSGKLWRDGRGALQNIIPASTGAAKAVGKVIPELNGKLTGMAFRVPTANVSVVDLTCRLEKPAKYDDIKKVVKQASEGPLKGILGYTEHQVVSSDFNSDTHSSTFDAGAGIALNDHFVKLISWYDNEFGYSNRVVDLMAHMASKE

| SMILES | Binding to HuR (HuR) | Binding to GAPDH (GAPDH) | Formation of R-loops (RNA:DNA hybrids) (HeLa cells) | Unedited dsRNA fiber structures in cells (YUMM1.7 cells) | Binding to ADAR1p110-E912A mutant (ADAR1p110-E912A) | IC50 (ADAR1p150) | RNase III sensitivity of induced dsRNA fibers (YUMM1.7 cells; RNase III treatment) | Inhibition of ADAR1p150 (ADAR1p150; result in words) |
| --- | --- | --- | --- | --- | --- | --- | --- | --- |
| N#Cc1ccc(NC(=O)c2sc3ccccc3c2Cl)cc1 [ADAR1i-13, 3-chloro-N-(4-cyanophenyl)-1-benzothiophene-2-carboxamide] | did not bind | did not bind | increased formation of R-loops | detected; also recorded: unedited dsRNA fibers induced | did not bind | 10 to 20 µM |  |  |
| N#Cc1ccccc1NC(=O)c1sc2ccccc2c1Cl [ADAR1i-120] |  |  | increased formation of R-loops | detected; also recorded: unedited dsRNA fibers induced |  | 10 to 20 µM |  |  |
| N#Cc1ccc(NC(=O)c2c(Cl)c3ccccc3n2CO)cc1 [ADAR1i-124] | did not bind | did not bind | increased formation of R-loops; also recorded: RNA:DNA hybrids induced | detected; also recorded: unedited dsRNA fibers induced | a binding kinetics different from that with ADAR1p110-WT | 10 to 20 µM | abolished by RNase III treatment; also recorded: sensitive to RNase III treatment | inhibited both ADAR1p150 and ADAR1p-110 |
